In patent US20130288897A1, “SYNERGISTIC PESTICIDAL COMPOSITIONS” (Dow AgroSciences LLC, priority 2012, published 2013):

Columns and labels:
Assay type in all cases: in vivo
[1] = test system: cotton aphid (CA) Aphis gossypii; assay: Cotton aphid track-sprayer test on cotton: Compound A or imidacloprid with Durango (glyphosate) or Durango Blank and AMS (Example XVI); settings: average of 5 reps
Description: Glyphosate resistant cotton plants (Gossypium hirsutum, cv ‘DP493’) were trimmed to 1 true leaf and infested with mixed stages of cotton aphid (CA) Aphis gossypii 24 h prior to application. Mixed developmental stage CA were infested onto the upper surface of each treated leaf by transferring infested foliage from an insectary colony. Each plant was infested with approximately equal numbers of CA based on visual estimation of aphid density on the infested material. Infested plants were held in the growth chamber (L:D 16:8 and 25° C.). Glyphosate (Durango®, Dow AgroSciences, LLC, Indianapolis, Ind.) was mixed with water at a rate equivalent to 15 ml/L (1.2 qt/Ac). […] A glyphosate free formulation of Durango® was prepared using these same mixing instructions. […] High rate Compound A concentrations were created by diluting Compound A technical material with acetone to achieve a 10 ppm solution. […] […] […] Nozzle height above the canopy was held constant at ca. 30 cm. Plants were evaluated after 3 days from the time of infestation by counting all live cotton aphids on each plant.
[…] Percent control for all treatments was calculated using the rep average for the untreated plants.

[2] = test system: cotton aphid (CA) Aphis gossypii; assay: Cotton aphid track-sprayer test on cotton: Compound A with glufosinate (Liberty) and AMS, rates 0.4, 0.1 and 0.025 g/Ha (Example XVIII); settings: AMS 18 g/L, no insecticide, no Lib.
Description: (§1) Glyphosate resistant cotton plants (Gossypium hirsutum, cv ‘DP493’) were trimmed to 1 true leaf and infested with mixed stages of cotton aphid (CA) Aphis gossypii 24 hours prior to application. Mixed developmental stage CA were infested onto the upper surface of each treated leaf by transferring infested foliage from an insectary colony. Each plant was infested with approximately equal numbers of CA based on visual estimation of aphid density on the infested material. Infested plants were held in the growth chamber (L:D 16:8 and 25° C.). Glufosinate (Liberty®, Bayer CropScience, Monheim am Rhein, Germany) was mixed with water at a rate equivalent to 5 ml/L (0.4 qt/Ac). […] High rate Compound A concentrations were created by diluting Compound A technical material with acetone to achieve a 20 ppm solution. […] […] […] Nozzle height above the canopy was held constant at ca. 30 cm. Plants were evaluated after 3 days from the time of infestation by counting all live cotton aphids on each plant.

[3] = test system: cotton aphid (CA) Aphis gossypii; assay: Cotton aphid track-sprayer test on cotton: Compound A or imidacloprid with glufosinate (Liberty) and AMS (Example XVII); settings: AMS 18 mg/ml, no insecticide, no glufosinate
Description: as §1, with “h” for “hours”, “10” for “20”
TABLE 6 contains the calculated Colby values for combinations of treatments as well as the outcome of statistical evaluations between predicted (Colby) and actual measured values. These T-test statistics were only calculated for the 0.2 and 0.05 g/Ha rates. […] These same trends were apparent when Compound A was applied with both glufosinate and AMS.

N.N.O=S(=O)(O)O [AMS, ammonium sulfate]
% control Ave ([1]; AMS 18 g/L alone, 0 g insecticide/Ha, block of Durango treatments): −7.0% | % control Ave ([1]; AMS 18 g/L alone, no insecticide, block of Durango Blank treatments): 13.3% | % control Ave ([1]; AMS 18 g/L with Durango Blank 0.015 ml/ml, no insecticide): 26.5% | % Control (Negatives to zero) Ave [2]: 13.2% | % control AVE [3]: 4.5%
